According to patent US12528794B2, “MAO-B inhibitor DRG-MAOB-1 for use in treatment of neurodegenerative diseases” (BAHCESEHIR UNIVERSITESI, priority 2020, dated 2026):

Assays:
human MAO-B = target: T1, human MAO-B (Homo sapiens, UniProt P27338); assay: MAO inhibitory assay (kynuramine, fluorescence), MAO-B; assay type: biochemical
T1 sequence (P27338 1-520): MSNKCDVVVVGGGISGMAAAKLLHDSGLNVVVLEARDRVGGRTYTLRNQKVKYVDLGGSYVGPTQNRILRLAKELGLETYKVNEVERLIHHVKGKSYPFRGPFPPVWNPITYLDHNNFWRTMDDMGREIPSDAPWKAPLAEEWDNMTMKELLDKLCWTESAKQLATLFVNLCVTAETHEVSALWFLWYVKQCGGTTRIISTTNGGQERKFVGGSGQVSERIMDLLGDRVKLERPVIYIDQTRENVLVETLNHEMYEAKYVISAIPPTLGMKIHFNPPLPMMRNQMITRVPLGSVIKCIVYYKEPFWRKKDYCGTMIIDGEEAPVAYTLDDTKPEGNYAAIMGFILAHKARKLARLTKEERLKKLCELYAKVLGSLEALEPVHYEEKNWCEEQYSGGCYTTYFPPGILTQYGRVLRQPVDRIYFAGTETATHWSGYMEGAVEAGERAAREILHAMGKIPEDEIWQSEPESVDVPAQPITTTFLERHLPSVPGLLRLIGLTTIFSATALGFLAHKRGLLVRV
Protocol: (§1) MAO inhibitory activity was assayed using the method of Novaroli et al. with minor modifications. Briefly, 140 μL of 0.1 M potassium phosphate buffer (pH 7.4), 8 μL of 0.75 mM kynuramine, and 2 μL of a dimethyl sulfoxide (DMSO) inhibitor solution (final DMSO concentration of 1% (v/v) and final concentrations of the inhibitors of 0-1 μM), were preincubated at 37° C. for 10 min. Diluted human recombinant enzyme (50 μL) was then added to obtain a final protein concentration of 0.0075 mg/mL (MAO-A) or 0.015 mg/mL (MAO-B) in the assay mixture. The reaction mixture was further incubated at 37° C. and the reaction was stopped after 20 min by the addition of 75 μL of 2 M NaOH. The product generated by MAO, 4-quinolinol, is fluorescent and was measured at Ex 310 nm/Em 400 nm using a microplate reader (Thermo Scientific-Multiskan GO). Each data points of samples were triplicate. The sample solution was replaced with DMSO to provide a negative control. The IC50 values were calculated from a line through two points which sandwiched the point of 50% (IC50) by plotting the remained activity (%) related to control (100%) versus the logarithm of the inhibitor concentration to obtain a sigmoidal dose-response curve

human MAO-A = target: T2, human MAO-A (Homo sapiens, UniProt P21397); assay: MAO inhibitory assay (kynuramine, fluorescence), MAO-A; assay type: biochemical; settings: human recombinant enzyme, kynuramine substrate, 37° C., triplicate
T2 sequence (P21397 1-527): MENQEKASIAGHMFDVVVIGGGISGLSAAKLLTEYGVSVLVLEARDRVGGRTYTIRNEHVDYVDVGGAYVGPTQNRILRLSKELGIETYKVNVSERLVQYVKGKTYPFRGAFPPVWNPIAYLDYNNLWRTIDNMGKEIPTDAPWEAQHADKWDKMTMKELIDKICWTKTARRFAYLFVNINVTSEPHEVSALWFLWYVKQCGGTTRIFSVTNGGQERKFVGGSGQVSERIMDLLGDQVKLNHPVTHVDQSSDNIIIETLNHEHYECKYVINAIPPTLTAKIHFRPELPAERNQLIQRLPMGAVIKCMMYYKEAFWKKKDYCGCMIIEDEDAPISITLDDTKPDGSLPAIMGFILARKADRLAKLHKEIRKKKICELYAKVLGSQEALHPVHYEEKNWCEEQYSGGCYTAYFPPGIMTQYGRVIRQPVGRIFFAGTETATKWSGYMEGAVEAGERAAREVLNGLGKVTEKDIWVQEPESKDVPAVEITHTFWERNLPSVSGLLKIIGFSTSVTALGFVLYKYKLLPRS
Protocol: as §1

In the case of `Cn1nc(C(=O)NCCc2nc3ccccc3[nH]2)c2ccccc21` (racemic) [compound of formula I], the “fold more potent binding to MOA-B compared to MOA-A” value (human MAO-B; MAO-B over MAO-A, from IC50 values) is reported as “approximately 13 fold”, the IC50 (human MAO-B; human recombinant enzyme, kynuramine substrate, 37° C., triplicate) is reported as 4.02 ± 0.03 nM and the IC50 (human MAO-A) is reported as 54.8 ± 1.9 nM.
